Data reported in paper PMC3961306, “Comparison of the Cancer Gene Targeting and Biochemical Selectivities of All Targeted Kinase Inhibitors Approved for Clinical Use” (PLoS ONE, 2014).

What was measured:
Assay in all cases: Kinase profiling in a biochemical assay panel (mobility shift assays and ELISA), %-inhibition at 1 μM; selectivity entropy
[1] = target: T1, panel of more than 300 wild-type and mutant kinases (313 kinase panel) (Homo sapiens, UniProt O15111); details: kinase IKKα; compound at 1 μM
T1 sequence (O15111 1-745): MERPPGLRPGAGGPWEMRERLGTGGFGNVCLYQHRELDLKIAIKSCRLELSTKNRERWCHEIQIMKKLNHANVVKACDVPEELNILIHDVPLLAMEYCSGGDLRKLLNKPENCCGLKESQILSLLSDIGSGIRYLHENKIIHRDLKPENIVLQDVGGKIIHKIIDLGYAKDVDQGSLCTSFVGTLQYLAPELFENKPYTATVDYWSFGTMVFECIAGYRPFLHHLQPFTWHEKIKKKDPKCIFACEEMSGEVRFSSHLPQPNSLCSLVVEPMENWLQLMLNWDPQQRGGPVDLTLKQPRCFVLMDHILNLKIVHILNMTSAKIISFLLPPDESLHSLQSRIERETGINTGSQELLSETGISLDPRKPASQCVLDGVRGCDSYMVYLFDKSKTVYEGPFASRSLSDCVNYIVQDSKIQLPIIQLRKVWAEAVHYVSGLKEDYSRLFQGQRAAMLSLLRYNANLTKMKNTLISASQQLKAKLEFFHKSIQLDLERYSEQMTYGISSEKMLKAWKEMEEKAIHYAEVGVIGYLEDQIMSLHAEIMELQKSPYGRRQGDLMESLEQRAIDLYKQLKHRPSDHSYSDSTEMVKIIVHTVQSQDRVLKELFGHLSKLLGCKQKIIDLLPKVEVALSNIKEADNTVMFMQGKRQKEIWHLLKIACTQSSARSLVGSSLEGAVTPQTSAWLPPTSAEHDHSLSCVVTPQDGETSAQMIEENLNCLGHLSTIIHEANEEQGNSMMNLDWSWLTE

[2] = target: panel of more than 300 wild-type and mutant kinases (313 kinase panel) (Homo sapiens, UniProt P23458)
[3] = target: panel of more than 300 wild-type and mutant kinases (313 kinase panel) (Homo sapiens, UniProt P24941); details: 1 μM compound; for %-inhibition, CDK2/CycA2: kinase CDK2/CycA2; for %-inhibition, CDK2/CycE1: kinase CDK2/CycE1
[4] = target: panel of more than 300 wild-type and mutant kinases (313 kinase panel) (Homo sapiens, UniProt P29597)
[5] = target: T2, panel of more than 300 wild-type and mutant kinases (313 kinase panel) (Homo sapiens, UniProt P45985); details: kinase MAP2K4; compound at 1 μM
T2 sequence (P45985 1-399): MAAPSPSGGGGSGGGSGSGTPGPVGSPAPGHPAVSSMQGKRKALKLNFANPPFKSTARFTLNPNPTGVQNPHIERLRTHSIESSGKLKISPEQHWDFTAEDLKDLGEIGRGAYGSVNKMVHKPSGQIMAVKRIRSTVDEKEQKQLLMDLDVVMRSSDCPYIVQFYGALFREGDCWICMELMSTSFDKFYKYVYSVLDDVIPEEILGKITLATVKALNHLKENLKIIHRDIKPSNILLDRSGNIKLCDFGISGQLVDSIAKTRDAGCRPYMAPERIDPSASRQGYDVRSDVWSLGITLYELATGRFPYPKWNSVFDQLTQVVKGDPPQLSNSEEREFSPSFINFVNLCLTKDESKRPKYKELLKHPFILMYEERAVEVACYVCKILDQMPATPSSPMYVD

[6] = target: panel of more than 300 wild-type and mutant kinases (313 kinase panel) (Homo sapiens, UniProt P78368); details: kinase CK1γ2; 1 μM compound
[7] = target: panel of more than 300 wild-type and mutant kinases (313 kinase panel) (Homo sapiens, UniProt Q05655)
[8] = target: panel of more than 300 wild-type and mutant kinases (313 kinase panel) (Homo sapiens, UniProt Q15303)
[9] = target: panel of more than 300 wild-type and mutant kinases (313 kinase panel) (Homo sapiens, UniProt Q16539)
[10] = target: T3, panel of more than 300 wild-type and mutant kinases (313 kinase panel) (Homo sapiens, UniProt Q96KB5); details: kinase PBK; 1 μM
T3 sequence (Q96KB5 1-322): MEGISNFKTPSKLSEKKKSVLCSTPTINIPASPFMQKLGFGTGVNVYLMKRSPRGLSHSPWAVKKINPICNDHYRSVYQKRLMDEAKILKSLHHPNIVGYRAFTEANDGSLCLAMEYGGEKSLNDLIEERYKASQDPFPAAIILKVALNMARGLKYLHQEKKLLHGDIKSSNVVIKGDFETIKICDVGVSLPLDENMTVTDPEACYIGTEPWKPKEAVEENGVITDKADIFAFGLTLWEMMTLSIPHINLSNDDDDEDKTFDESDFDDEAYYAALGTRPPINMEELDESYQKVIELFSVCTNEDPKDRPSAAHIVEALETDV

[11] = target: panel of more than 300 wild-type and mutant kinases (313 kinase panel) (Homo sapiens, UniProt Q9H1R3); details: kinase skMLCK; 1 μM
[12] = target: panel of more than 300 wild-type and mutant kinases (313 kinase panel) (Homo sapiens, UniProt Q9Y5S2); details: kinase MRCKβ; 1 μM

Chain of panel of more than 300 wild-type and mutant kinases (313 kinase panel) (Homo sapiens, UniProt Q16539) (Q16539 whole entry, change not shown): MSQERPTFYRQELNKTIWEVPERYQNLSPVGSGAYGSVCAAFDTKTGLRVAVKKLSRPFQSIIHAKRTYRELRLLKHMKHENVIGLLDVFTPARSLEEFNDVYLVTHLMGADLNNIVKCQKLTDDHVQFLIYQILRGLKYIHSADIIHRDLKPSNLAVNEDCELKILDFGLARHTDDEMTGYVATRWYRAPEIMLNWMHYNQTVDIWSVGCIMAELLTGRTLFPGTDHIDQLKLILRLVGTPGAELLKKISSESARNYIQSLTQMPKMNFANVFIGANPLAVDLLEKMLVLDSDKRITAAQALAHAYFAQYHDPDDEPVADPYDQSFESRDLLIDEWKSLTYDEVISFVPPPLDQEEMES
Chain of panel of more than 300 wild-type and mutant kinases (313 kinase panel) (Homo sapiens, UniProt P29597) (P29597 whole entry, change not shown): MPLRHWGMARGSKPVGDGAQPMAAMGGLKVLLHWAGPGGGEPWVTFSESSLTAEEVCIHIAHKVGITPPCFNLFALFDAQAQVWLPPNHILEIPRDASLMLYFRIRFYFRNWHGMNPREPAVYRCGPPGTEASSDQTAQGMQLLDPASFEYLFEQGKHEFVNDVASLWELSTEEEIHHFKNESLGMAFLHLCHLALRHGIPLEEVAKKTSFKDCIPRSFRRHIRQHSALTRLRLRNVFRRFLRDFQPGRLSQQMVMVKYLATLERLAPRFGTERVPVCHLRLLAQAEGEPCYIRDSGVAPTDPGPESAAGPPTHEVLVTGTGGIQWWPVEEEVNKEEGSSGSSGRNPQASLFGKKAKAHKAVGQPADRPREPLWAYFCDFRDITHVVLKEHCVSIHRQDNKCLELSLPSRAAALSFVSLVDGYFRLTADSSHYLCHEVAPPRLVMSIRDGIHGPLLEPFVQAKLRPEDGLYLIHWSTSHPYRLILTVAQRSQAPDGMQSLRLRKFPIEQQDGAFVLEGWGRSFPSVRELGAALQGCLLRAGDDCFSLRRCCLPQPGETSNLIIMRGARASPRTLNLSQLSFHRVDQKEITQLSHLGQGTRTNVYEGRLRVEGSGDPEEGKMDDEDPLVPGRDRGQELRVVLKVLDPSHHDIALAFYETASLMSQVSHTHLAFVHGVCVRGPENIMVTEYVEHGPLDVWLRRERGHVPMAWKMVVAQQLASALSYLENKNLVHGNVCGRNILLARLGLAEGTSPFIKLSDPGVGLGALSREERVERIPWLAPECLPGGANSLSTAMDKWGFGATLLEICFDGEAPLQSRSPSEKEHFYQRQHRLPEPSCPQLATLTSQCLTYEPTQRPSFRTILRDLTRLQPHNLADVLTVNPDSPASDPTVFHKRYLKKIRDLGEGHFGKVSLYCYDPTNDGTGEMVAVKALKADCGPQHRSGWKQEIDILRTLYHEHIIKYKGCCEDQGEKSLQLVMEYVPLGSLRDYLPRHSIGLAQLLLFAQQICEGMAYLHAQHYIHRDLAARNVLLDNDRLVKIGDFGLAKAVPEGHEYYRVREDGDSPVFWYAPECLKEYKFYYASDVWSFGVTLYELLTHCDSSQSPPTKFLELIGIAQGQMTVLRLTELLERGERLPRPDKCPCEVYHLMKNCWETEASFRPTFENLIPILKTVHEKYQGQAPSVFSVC
Chain of panel of more than 300 wild-type and mutant kinases (313 kinase panel) (Homo sapiens, UniProt Q15303) (Q15303 26-1308, change not shown): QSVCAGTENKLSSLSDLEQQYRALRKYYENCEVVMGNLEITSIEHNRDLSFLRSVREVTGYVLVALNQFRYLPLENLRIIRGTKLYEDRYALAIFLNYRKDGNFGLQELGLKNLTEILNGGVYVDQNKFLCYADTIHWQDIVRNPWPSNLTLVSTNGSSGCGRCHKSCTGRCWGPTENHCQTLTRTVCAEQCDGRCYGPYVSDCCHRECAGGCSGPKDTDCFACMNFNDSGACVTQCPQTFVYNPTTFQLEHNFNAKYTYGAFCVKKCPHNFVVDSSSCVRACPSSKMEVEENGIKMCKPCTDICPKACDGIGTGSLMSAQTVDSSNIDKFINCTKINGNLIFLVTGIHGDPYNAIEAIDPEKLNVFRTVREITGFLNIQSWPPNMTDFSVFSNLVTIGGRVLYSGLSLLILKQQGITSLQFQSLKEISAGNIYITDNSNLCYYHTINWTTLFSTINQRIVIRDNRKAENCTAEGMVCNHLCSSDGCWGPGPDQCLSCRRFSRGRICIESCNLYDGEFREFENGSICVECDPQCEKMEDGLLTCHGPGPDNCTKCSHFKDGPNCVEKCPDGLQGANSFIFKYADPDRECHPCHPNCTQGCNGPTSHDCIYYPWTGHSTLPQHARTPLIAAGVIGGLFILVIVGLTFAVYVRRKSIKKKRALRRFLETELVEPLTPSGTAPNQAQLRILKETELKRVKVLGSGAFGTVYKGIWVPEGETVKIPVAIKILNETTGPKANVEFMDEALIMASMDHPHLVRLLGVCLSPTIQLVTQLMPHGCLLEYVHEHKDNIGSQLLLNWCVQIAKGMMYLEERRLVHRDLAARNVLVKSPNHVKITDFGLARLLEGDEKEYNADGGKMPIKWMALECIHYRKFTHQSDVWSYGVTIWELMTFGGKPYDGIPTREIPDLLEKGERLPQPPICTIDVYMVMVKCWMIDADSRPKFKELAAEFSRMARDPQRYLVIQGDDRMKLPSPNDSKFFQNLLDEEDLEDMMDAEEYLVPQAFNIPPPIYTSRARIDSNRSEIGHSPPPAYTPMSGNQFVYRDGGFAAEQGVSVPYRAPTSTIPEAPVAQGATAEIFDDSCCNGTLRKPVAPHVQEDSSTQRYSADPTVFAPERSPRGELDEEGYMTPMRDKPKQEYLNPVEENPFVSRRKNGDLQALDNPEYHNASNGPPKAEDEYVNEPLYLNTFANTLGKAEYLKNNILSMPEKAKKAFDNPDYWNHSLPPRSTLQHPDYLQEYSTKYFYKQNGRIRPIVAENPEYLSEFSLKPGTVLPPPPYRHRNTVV

| SMILES | %-inhibition of IKKα [1] [%] | %-inhibition of JAK1 ([2]; 1 µM) [%] | %-inhibition, CDK2/CycA2 [3] [%] | %-inhibition, CDK2/CycE1 [3] [%] | %-inhibition of TYK2 ([4]; 1 µM) [%] | %-inhibition of MAP2K4 [5] [%] | %-inhibition, CK1γ2 [6] [%] | %-inhibition of PKCδ ([7]; 1 µM) [%] | %-inhibition of HER4 ([8]; 1 µM) [%] | %-inhibition of p38α ([9]; 1 µM) [%] | %-inhibition of PBK [10] [%] | %-inhibition of skMLCK [11] [%] | %-inhibition of MRCKβ [12] [%] | %-inhibition of JAK1 ([2]; kinase JAK1, compound at 1 μM) [%] | %-inhibition of TYK2 ([4]; kinase TYK2, compound at 1 μM) [%] | %-inhibition of PKCδ ([7]; kinase PKCδ, 1 μM) [%] | %-inhibition of HER4 ([8]; kinase HER4, compound at 1 μM) [%] | %-inhibition of p38α ([9]; kinase p38α, 1 μM) [%] |
| --- | --- | --- | --- | --- | --- | --- | --- | --- | --- | --- | --- | --- | --- | --- | --- | --- | --- | --- |
| Cc1cn(-c2cc(NC(=O)c3ccc(C)c(Nc4nccc(-c5cccnc5)n4)c3)cc(C(F)(F)F)c2)cn1 [nilotinib] | 1.27 | 13 | -0.282 | 20 | -1.71 | -4.54 | 5.57 | -14 | 73 | 92 | -8 | -14 | -10 |  |  |  |  |  |
| COc1cc2nccc(Oc3ccc(NC(=O)C4(C(=O)Nc5ccc(F)cc5)CC4)cc3)c2cc1OC [cabozantinib] | -1.89 |  | -9 | 5 |  | -0.379 | 0.731 |  |  |  | -4.29 | 12 | -3 | -1.59 | -3.68 | -0.835 | 23 | 37 |
